Active and inactive are the calls of the source. The rule behind the calls is not given here. Positions of bridges follow the written chain, without caps; N, C: chain ends. Non-standard residues stand in square brackets, D forms with d. Residues, ends and D or L forms follow the SMILES beside them. dPhe(4-Cl) = N[C@H](Cc1ccc(Cl)cc1)C(=O)O; dPhe(4-F) = N[C@H](Cc1ccc(F)cc1)C(=O)O; d2Nal = N[C@H](Cc1ccc2ccccc2c1)C(=O)O; Dap = NC[C@H](N)C(=O)O
Legend:
[1] = target: T1, Gonadotropin-releasing hormone receptor (Rattus norvegicus, UniProt P30969); assay: Competitive radioligand binding assay, in human HEK293 cells stably transfected with the rat Gonadotropin-releasing hormone receptor; assay type: cell-based
T1 sequence (P30969 whole entry): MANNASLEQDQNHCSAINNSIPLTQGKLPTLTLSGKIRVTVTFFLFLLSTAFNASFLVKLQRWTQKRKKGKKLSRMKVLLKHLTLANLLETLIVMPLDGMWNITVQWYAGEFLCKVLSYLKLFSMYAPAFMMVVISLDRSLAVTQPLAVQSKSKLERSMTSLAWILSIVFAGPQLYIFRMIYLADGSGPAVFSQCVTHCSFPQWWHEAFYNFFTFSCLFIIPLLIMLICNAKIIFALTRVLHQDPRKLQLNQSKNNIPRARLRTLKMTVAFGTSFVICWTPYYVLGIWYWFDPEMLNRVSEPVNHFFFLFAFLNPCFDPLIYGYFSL

[2] = system: Rattus norvegicus; assay: Evaluated for the ovulation effects in the rat by administering the drug at the doses (2.5 ug); 3/3; assay type: functional, organism-based
[3] = system: Rattus norvegicus; assay: Evaluated for the ovulation effects in the rat by administering the drug at the doses (5 ug); 2/6; assay type: functional, organism-based
[4] = system: Rattus norvegicus; assay: Evaluated for the ovulation effects in the rat by administering the drug at the doses (100 ug); 1/8; assay type: functional, organism-based
[5] = system: Rattus norvegicus; assay: Evaluated for the ovulation effects in the rat by administering the drug at the doses (25 ug); 2/5; assay type: functional, organism-based
[6] = system: Rattus norvegicus; assay: Evaluated for the ovulation effects in the rat by administering the drug at the doses (50 ug); 2/8; assay type: functional, organism-based
[7] = system: Rattus norvegicus; assay: Evaluated for the ovulation effects in the rat by administering the drug at the doses (5.0 ug); 4/7; assay type: functional, organism-based
[8] = system: Rattus norvegicus; assay: Evaluated for the ovulation effects in the rat by administering the drug at the doses (10 ug); 4/9; assay type: functional, organism-based
[9] = system: Rattus norvegicus; assay: Evaluated for the ovulation effects in the rat by administering the drug at the doses (10 ug); 3/3; assay type: functional, organism-based
[10] = system: Rattus norvegicus; assay: Evaluated for the ovulation effects in the rat by administering the drug at the doses (250 ug); 0/6; assay type: functional, organism-based
[11] = system: Rattus norvegicus; assay: Evaluated for the ovulation effects in the rat by administering the drug at the doses (250 ug); 1/3
[12] = system: Rattus norvegicus; assay: Evaluated for the ovulation effects in the rat by administering the drug at the doses (2.5 ug); 9/10; assay type: functional, organism-based
[13] = system: Rattus norvegicus; assay: Evaluated for the ovulation effects in the rat by administering the drug at the doses (5 ug); 3/20; assay type: functional, organism-based
[14] = system: Rattus norvegicus; assay: Evaluated for the ovulation effects in the rat by administering the drug at the doses (10 ug); 0/10; assay type: functional, organism-based
[15] = system: Rattus norvegicus; assay: Evaluated for the ovulation effects in the rat by administering the drug at the doses (1.0 ug); 11/15; assay type: functional, organism-based
[16] = system: Rattus norvegicus; assay: Evaluated for the ovulation effects in the rat by administering the drug at the doses (10 ug); 0/9; assay type: functional, organism-based
[17] = system: Rattus norvegicus; assay: Evaluated for the ovulation effects in the rat by administering the drug at the doses (2.5 ug); 3/10; assay type: functional, organism-based
[18] = system: Rattus norvegicus; assay: Evaluated for the ovulation effects in the rat by administering the drug at the doses (5 ug); 1/8; assay type: functional, organism-based
[19] = system: Rattus norvegicus; assay: Evaluated for the ovulation effects in the rat by administering the drug at the doses (25 ug); 4/4; assay type: functional, organism-based
[20] = system: Rattus norvegicus; assay: Evaluated for the ovulation effects in the rat by administering the drug at the doses (0.5 ug); 5/5; assay type: functional, organism-based
[21] = system: Rattus norvegicus; assay: Evaluated for the ovulation effects in the rat by administering the drug at the doses (2.5 ug); 1/8; assay type: functional, organism-based
[22] = system: Rattus norvegicus; assay: Evaluated for the ovulation effects in the rat by administering the drug at the doses (1.0 ug); 2/11; assay type: functional, organism-based
[23] = system: Rattus norvegicus; assay: Evaluated for the ovulation effects in the rat by administering the drug at the doses (5.0 ug); 0/6; assay type: functional, organism-based
[24] = system: Rattus norvegicus; assay: Evaluated for the ovulation effects in the rat by administering the drug at the doses (2.5 ug); 2/8
[25] = system: Rattus norvegicus; assay: Evaluated for the ovulation effects in the rat by administering the drug at the doses (1.0 ug); 4/4; assay type: functional, organism-based
[26] = system: Rattus norvegicus; assay: Evaluated for the ovulation effects in the rat by administering the drug at the doses (2.5 ug); 3/8; assay type: functional, organism-based

SMILES: CC(=O)N[C@H](Cc1ccc2ccccc2c1)C(=O)N[C@H](Cc1ccc(F)cc1)C(=O)N[C@H](Cc1c[nH]c2ccccc12)C(=O)N[C@H]1CCC(=O)NC(C(N)=O)NC(=O)[C@@H]2CCCN2C(=O)[C@H](CCCNC(=N)N)NC(=O)[C@H](CC(C)C)NC(=O)[C@@H](CCCNC(=N)N)NC(=O)[C@H](Cc2ccc(O)cc2)NC1=O (some centres not stated)
- Ki ([1]; hek293): 1.3 nM

SMILES: CC(=O)N[C@H](Cc1ccc2ccccc2c1)C(=O)N[C@H](Cc1ccc(Cl)cc1)C(=O)N[C@H](Cc1c[nH]c2ccccc12)C(=O)N[C@H]1CC(=O)NC[C@@H](C(N)=O)NC(=O)[C@@H]2CCCN2C(=O)[C@@H]2CCCCNC(=O)CC[C@H](NC1=O)C(=O)N[C@H](Cc1ccc3ccccc3c1)C(=O)N[C@@H](CC(C)C)C(=O)N2
- Ki [1]: 1.2 nM

SMILES: CC(=O)N[C@H](Cc1ccc2ccccc2c1)C(=O)N[C@H](Cc1ccc(Cl)cc1)C(=O)N[C@H](Cc1cccnc1)C(=O)N[C@H]1CC(=O)NC[C@@H](C(N)=O)NC(=O)[C@@H]2CCCN2C(=O)[C@@H]2CCCNC(=O)[C@H](Cc3ccccc3)NC(=O)C[C@H](NC1=O)C(=O)N[C@H](CCCN=C(N)N)C(=O)N[C@@H](CC(C)C)C(=O)N2
- Activity [2]: inactive
- Ki [1]: 0.75 nM
- Activity [3]: Weak activity

SMILES: CC(=O)N[C@H](Cc1ccc2ccccc2c1)C(=O)N[C@H](Cc1ccc(Cl)cc1)C(=O)N[C@H](Cc1cccnc1)C(=O)N[C@H]1CC(=O)NC[C@@H](C(N)=O)NC(=O)[C@@H]2CCCN2C(=O)[C@@H]2CCCCNC(=O)CC[C@H](NC1=O)C(=O)N[C@H](Cc1ccc3ccccc3c1)C(=O)N[C@@H](CC(C)C)C(=O)N2
- Activity [4]: Active
- Activity [5]: Weak activity
- Ki [1]: 1.3 nM
- Activity [6]: Weak activity

SMILES: CC(=O)N[C@H](Cc1ccc2ccccc2c1)C(=O)N[C@H](Cc1ccc(Cl)cc1)C(=O)N[C@H](Cc1cccnc1)C(=O)N[C@H]1CC(=O)NC[C@@H](C(N)=O)NC(=O)[C@@H]2CCCN2C(=O)[C@@H]2CCNC(=O)CCNC(=O)C[C@H](NC1=O)C(=O)N[C@H](CCCN=C(N)N)C(=O)N[C@@H](CC(C)C)C(=O)N2
- Activity [7]: Weak activity
- Ki [1]: 0.37 nM

SMILES: CC(=O)N[C@H](Cc1ccc2ccccc2c1)C(=O)N[C@H](Cc1ccc(F)cc1)C(=O)N[C@H](Cc1c[nH]c2ccccc12)C(=O)N[C@H]1CC(=O)NC[C@@H](C(N)=O)NC(=O)[C@@H]2CCCN2C(=O)[C@H](CCCN=C(N)N)NC(=O)[C@H](CC(C)C)NC(=O)[C@@H](CCCN=C(N)N)NC(=O)[C@H](Cc2ccc(O)cc2)NC1=O (Ac-[d2Nal][dPhe(4-F)][dW]DY[dR]LRP[Dap]-NH2; lactam 4-10)
- Ki ([1]; hek293): 0.36 nM

SMILES: CC(=O)N[C@H](Cc1ccc2ccccc2c1)C(=O)N[C@H](Cc1ccc(Cl)cc1)C(=O)N[C@H](Cc1cccnc1)C(=O)N[C@H]1CC(=O)NC[C@@H](C(N)=O)NC(=O)[C@@H]2CCCN2C(=O)[C@@H]2CCNC(=O)CN(C)C(=O)CC[C@H](NC1=O)C(=O)N[C@H](CCCN=C(N)N)C(=O)N[C@@H](CC(C)C)C(=O)N2
- Ki [1]: 0.2 nM
- Activity [8]: Weak activity

SMILES: CC(=O)N[C@H](Cc1ccc2ccccc2c1)C(=O)N[C@H](Cc1ccc(Cl)cc1)C(=O)N[C@H](Cc1cccnc1)C(=O)N[C@H]1CC(=O)NC[C@@H](C(N)=O)NC(=O)[C@@H]2CCCN2C(=O)[C@@H]2CCNC(=O)[C@H](CCCN=C(N)N)NC(=O)CC[C@H](NC1=O)C(=O)N[C@H](Cc1cccnc1)C(=O)N[C@@H](CC(C)C)C(=O)N2
- Ki [1]: 0.59 nM
- Activity [9]: inactive
- Activity [10]: Active
- Activity [11]: Weak activity

SMILES: CC[C@H](NC(C)=O)C(=O)N[C@@H](Cc1ccc(Cl)cc1)C(=O)N[C@@H](Cc1c[nH]c2ccccc12)C(=O)N[C@@H](CC(=O)O)C(=O)N[C@@H]1CCC(=O)NCCCC[C@@H](C(=O)N2CCC[C@@H]2C(=O)N[C@@H](C)C(N)=O)NC(=O)[C@H](CC(C)C)NC(=O)[C@@H](CCCNC(=N)N)NC1=O (stereo in doubt; 13)
- Ki ([1]; hek293): 0.84 nM

SMILES: CC(=O)N[C@H](Cc1ccc2ccccc2c1)C(=O)N[C@H](Cc1ccc(F)cc1)C(=O)N[C@H](Cc1c[nH]c2ccccc12)C(=O)N[C@H]1CC(=O)NCC[C@@H](C(N)=O)NC(=O)[C@@H]2CCCN2C(=O)[C@H](CCCNC(=N)N)NC(=O)[C@H](CC(C)C)NC(=O)[C@@H](CCCNC(=N)N)NC(=O)[C@H](Cc2ccc(O)cc2)NC1=O
- Ki ([1]; hek293): 10 nM

SMILES: CC(=O)N[C@H](Cc1ccc2ccccc2c1)C(=O)N[C@H](Cc1ccc(Cl)cc1)C(=O)N[C@H](Cc1c[nH]c2ccccc12)C(=O)N[C@H]1CC(=O)NC[C@@H](C(N)=O)NC(=O)[C@@H]2CCCN2C(=O)[C@@H]2CCCCNC(=O)CC[C@H](NC1=O)C(=O)N[C@H](CCCN=C(N)N)C(=O)N[C@@H](CC(C)C)C(=O)N2 (Ac-[d2Nal][dPhe(4-Cl)][dW]DE[dR]LKP[Dap]-NH2; lactam 4-10, 5-8)
- Activity [12]: inactive
- Ki [1]: 0.32 nM
- Activity [13]: Weak activity
- Activity [14]: Active

SMILES: CC(=O)N[C@H](Cc1ccc2ccccc2c1)C(=O)N[C@H](Cc1ccc(Cl)cc1)C(=O)N[C@H](Cc1cccnc1)C(=O)N[C@H]1CC(=O)NC[C@@H](C(N)=O)NC(=O)[C@@H]2CCCN2C(=O)[C@@H]2CCNC(=O)[C@H](Cc3ccccc3)NC(=O)CC[C@H](NC1=O)C(=O)N[C@H](CCCN=C(N)N)C(=O)N[C@@H](CC(C)C)C(=O)N2
- Activity [15]: inactive
- Activity [16]: Active
- Activity [17]: Weak activity
- Activity [18]: Active
- Ki [1]: 0.23 nM

SMILES: CC(=O)N[C@H](Cc1ccc2ccccc2c1)C(=O)N[C@H](Cc1ccc(Cl)cc1)C(=O)N[C@H](Cc1cccnc1)C(=O)N[C@H]1CC(=O)NC[C@@H](C(N)=O)NC(=O)[C@@H]2CCCN2C(=O)[C@@H]2CCNC(=O)[C@H](Cc3ccccc3)NC(=O)C[C@H](NC1=O)C(=O)N[C@H](CCCN=C(N)N)C(=O)N[C@@H](CC(C)C)C(=O)N2
- Ki [1]: 12 nM
- Activity [19]: inactive

SMILES: CC(=O)N[C@H](Cc1ccc2ccccc2c1)C(=O)N[C@H](Cc1ccc(F)cc1)C(=O)N[C@H](Cc1c[nH]c2ccccc12)C(=O)N[C@H]1CC(=O)NC(C(N)=O)NC(=O)[C@@H]2CCCN2C(=O)[C@H](CCCNC(=N)N)NC(=O)[C@H](CC(C)C)NC(=O)[C@@H](CCCNC(=N)N)NC(=O)[C@H](Cc2ccc(O)cc2)NC1=O (some centres not stated)
- Ki ([1]; hek293): 1.3 nM

SMILES: CC(=O)N[C@H](Cc1ccc2ccccc2c1)C(=O)N[C@H](Cc1ccc(Cl)cc1)C(=O)N[C@H](Cc1cccnc1)C(=O)N[C@H]1CC(=O)NC[C@@H](C(N)=O)NC(=O)[C@@H]2CCCN2C(=O)[C@@H]2CCNC(=O)[C@H](CCCN=C(N)N)NC(=O)CC[C@H](NC1=O)C(=O)N[C@H](CCCN=C(N)N)C(=O)N[C@@H](CC(C)C)C(=O)N2
- Activity [20]: inactive
- Activity [21]: Active
- Ki [1]: 0.2 nM
- Activity [22]: Active

SMILES: CC(=O)N[C@H](Cc1ccc2ccccc2c1)C(=O)N[C@H](Cc1ccc(Cl)cc1)C(=O)N[C@H](Cc1cccnc1)C(=O)N[C@H]1CC(=O)NC[C@@H](C(N)=O)NC(=O)[C@@H]2CCCN2C(=O)[C@@H]2CCNC(=O)[C@H](Cc3ccc(Cl)cc3)NC(=O)CC[C@H](NC1=O)C(=O)N[C@H](CCCN=C(N)N)C(=O)N[C@@H](CC(C)C)C(=O)N2
- Activity [23]: Active
- Ki [1]: 0.23 nM
- Activity [24]: Weak activity

SMILES: CC(=O)N[C@H](Cc1ccc2ccccc2c1)C(=O)N[C@H](Cc1ccc(Cl)cc1)C(=O)N[C@H](Cc1cccnc1)C(=O)N[C@H]1CC(=O)NC[C@@H](C(N)=O)NC(=O)[C@@H]2CCCN2C(=O)[C@@H]2CCNC(=O)[C@H](Cc3c[nH]cn3)NC(=O)CC[C@H](NC1=O)C(=O)N[C@H](CCCN=C(N)N)C(=O)N[C@@H](CC(C)C)C(=O)N2
- Ki [1]: 0.1 nM
- Activity [25]: inactive
- Activity [26]: Weak activity
